The subject of one series is A549 cells. The series can be described thus: MicroRNA mimics: cell cycle assay. Particulars: RNAIMAX transfection, 0.1-100 nM, nocodazole, propidium iodide flow cytometry. The format is cell-based. As for the experimental part: A cell cycle assay was used to evaluate the activity of microRNA mimics. A549 cells were plated at a density of approximately 45,000 cells per well of a 24-well plate. The following day, cells were transfected with microRNA mimics and control oligomeric compounds, using RNAIMAX as the transfection reagent. Oligomeric compounds were tested at concentrations ranging from 0.1 nM to 100 nM. Control oligomeric compounds were also tested. Approximately 24 hours following transfection, nocodazole was added to the cells at a concentration ranging from 0.5 to 2.0 μg/ml. Approximately 16 hours later, the cells were harvested, washed, ethanol-fixed and stained with propidium iodide. Cells cycle profiles were generated by subjecting the stained cells to flow cytometry (FACSCAN).
In general terms: A flow cytometer gives signals particle by particle.

Series [1] can be described thus: Modified ssRNA 5′-phosphate serum stability assay (Example 60). The format is in vitro ADME. The note with it: full length ssRNA with 5′-terminal phosphate; 10 μM in 95% fresh mouse serum, 37° C., LC/MS. An excerpt: A serum stability assay is useful for evaluating the stability of oligomeric compounds in the presences of nucleases and other enzymes found in serum. For example, the stability of a 5′-terminal phosphate group of an oligomeric compound can be evaluated by assessing the ability of the 5′-terminal phosphate group to remain attached to the oligomeric compound in the presence of serum. Accordingly, a serum stability assay was employed to evaluate the stability of modified ssRNAs having a 5′-terminal phosphate group.
Various modified ssRNAs, shown below, having a 5′-terminal phosphate group (10 μM) were dissolved in 95% of fresh mouse serum and incubated at 37° C. Aliquots of serum (100 μL) were removed after 0, 1, 3, 6 or 24 hours of incubation times. The serum samples were immediately quenched and snap frozen. The samples were extracted by the strong anion exchange (SAX) and octadecylsilyl (C-18) columns. For each incubation time, the amount of full length modified ssRNA having a 5′-terminal phosphate group was determined by LC/MS, and the half-life of the full length modified ssRNA having a 5′ terminal phosphate group was calculated. The results are expressed as half-time (T1/2) in the table below.

Series [2] is described as follows: Phosphate stability in mouse serum (Example 68).
Method: Single-stranded oligomeric compounds were tested for stability in mouse serum.
A further series relates to human PTEN. The series can be described thus: PTEN expression in HeLa cells, ssRNAs vs siRNAs (Example 62). Type of series: cell-based. Here is the method:
A series of 5′ and 2′ bis-substituted modified oligomeric compounds were prepared as single strand RNAs (ssRNAs). The antisense (AS) strands listed below were designed to target human PTEN, and each was also assayed as part of a duplex with the same sense strand (ISIS 341401, shown below) for their ability to reduce PTEN expression levels. HeLa cells were treated with the single stranded or double stranded oligomeric compounds created with the antisense compounds shown below using methods described herein. The IC50's were calculated using the linear regression equation generated by plotting the normalized mRNA levels to the log of the concentrations used.

Series [3] concerns PTEN. The series can be described thus: Liver PTEN mRNA in Balb/c mice, unformulated oligomeric compounds (Example 70). Type of series: in vivo, mouse. The note with it: 48 h; for inhibition of PTEN: 75 mg/kg, liver; for % inhibition: liver PTEN mRNA, single i.p. dose 75 mg/kg, normalized to saline control. As for the experimental part:
Six-week-old male Balb/c mice (Jackson Laboratory, Bar Harbor, Me.) were injected intraperitenially with a single dose of 75 mg/kg of one of the three oligomeric compounds above or with saline control. Each dose group consisted of four animals. The mice were sacrificed 48 hours following administration. Livers were collected and PTEN mRNA levels were assessed using real-time PCR and RIBOGREEN® RNA quantification reagent (Molecular Probes, Inc. Eugene, Oreg.) according to standard protocols. PTEN mRNA levels were determined relative to total RNA (using Ribogreen), and normalized to the saline-treated control. Results are listed below as the average % inhibition of PTEN mRNA expression for each treatment group, normalized to saline-injected control.

For series [4], the system named is PTEN. The series can be described thus: PTEN mRNA reduction in HeLa cells, dose response (Example 69). The format is cell-based, human. Particulars: percent inhibition of PTEN mRNA, 0.067-50 nM. As for the experimental part: (§1) In accordance with the present disclosure, oligomeric compounds were synthesized and tested for their ability to reduce PTEN expression over a range of doses. Human HeLa cells were treated with either ISIS 447581, 467074, 418046 or 467076. A dose comparison was evaluated with dose concentrations of 0.067, 0.2, 0.62, 1.9, 5.5, 16.7 and 50 nM using methods described herein. Expression levels of PTEN were determined using real-time PCR and normalized to RIBOGREEN™ using methods described herein. The percent inhibition of PTEN mRNA was determined and the resulting dose-response curves were used to determine the EC50. The EC50s are listed below.

Series [5] concerns PTEN. The series can be described thus: In vivo evaluation of ssRNA formulated in lipid particle LNP06, liver PTEN mRNA (Example 77). On the set-up: species or system mouse. Particulars: ssRNA formulated in LNP06, 4.5 mg/kg tail vein, C57BL/6 mice, liver PTEN mRNA normalized to GAPDH, 2 days post injection. Here is the method:
In accordance with the present disclosure, oligomeric compounds were synthesized and tested for their ability to reduce PTEN. C57BL/6 mice (Charles River Labs, MA) received either saline or LNP formulated single stranded RNA via tail vein injection at a volume of 0.01 mL/g and the single stranded RNA dose is 4.5 mg/kg. 25 groups of female mice and 9 modified ssRNAs targeting PTEN were formulated in LNP06 and tested. To determine liver mRNA levels of PTEN, 2 days post injection, animals were sacrificed and livers were harvested and snap frozen in liquid nitrogen. Liver lysates were prepared from the frozen tissues and liver mRNA levels of PTEN normalized to GAPDH were quantified using a branched DNA assay (QuantiGene Assay, Panomics, Calif.).

Series [6] in a line: In vivo stability: tissue level of intact compound (Example 71).
Method: The in vivo stability of the three oligomeric compounds in Example 70 was evaluated. The tissue samples were obtained from the animals in which PTEN was assessed. […] Quantitative analysis of the oligonucleotides standard were performed by extracted ion chromatograms in the most abundant charge state (−4) using Chemstation software.
Series [7] deals with PTEN. The series can be described thus: PTEN mRNA reduction in HeLa cells, dose response (Example 72). Type of series: cell-based, human. The note with it: percent inhibition of PTEN mRNA, 0.167-50 nM. Here is the method:
as §1, with “the following oligomeric compounds.” for “either ISIS 447581, 467074, 418046 or 467076.”, “0.167, 0.5, 1.5, 5, 15” for “0.067, 0.2, 0.62, 1.9, 5.5, 16.7”, “IC50.” for “EC50.”, “IC50s” for “EC50s”

The mark [8] stands for this setting: full compound with intact phosphorous moiety, first table.
[9] abbreviates: antisense strand duplexed with sense strand ISIS 341401, PTEN mRNA, read-out: EC50 (nM) siRNA.
[10] abbreviates: single stranded antisense compound, PTEN mRNA, read-out: EC50 (nM) ssRNA.
[11] abbreviates: Dose @ 75 mg/kg (48 h time point).

Where two headings read alike, the source gives them in different places. Strand notation (5' to 3'): a small letter for the sugar, then the base; units joined by * are phosphorothioate-linked, units joined directly phosphodiester-linked; [ ] holds rarer units or linkages, { } end groups; capitals alone tell only the bases. [DMAEAc-N] = nucleoside with 2'-O-dimethylaminoethyl acetamide (DMAEAc) sugar (N: the base); [R5Me] = (R)-5'-methyl-2'-deoxythymidine; e = 2'-O-(2-methoxyethyl) (MOE); m = 2'-O-methyl; {P} = phosphate; f = 2'-fluoro

A word on the EC50: it is the concentration that produces a half-maximal response. Usually % inhibition stands for the relative decrease from the control value, in per cent. One may read the IC50 as the midpoint of a concentration-inhibition curve. Lower therefore signals inhibition by little substance.

On to “P-UmAfGfCfAfGfCfAfCmGmUfAfAmAmUfAfUfUfGfGmCmGmAeAe [ss miR-16]”, for which, in the series on A549 cells, the cell cycle phenotype result is “blocking cells in the G1 phase of the cell cycle”.
Regarding “P-USfUfGfUfCfUfCfUfGfGfUfCfCfUfUfAfCfUfUf (antisense UUGUCUCUGGUCCUUACUU; 5'-phosphate, 2'-F, phosphorothioate, chemistry not fully specified) [ISIS 398701, modified ssRNA targeting PTEN]”, in series [1], the “T1/2” value is 18.2 h.
“P-TRUfGfUfCfUfCfUfGfGfUfCfCfUfUfAfCfUfUfAeAe (antisense TUGUCUCUGGUCCUUACUUAA; sugars from the 5' end [R5Me]1 f18 e2, 5' {P}, backbone not given here) [ISIS 432356, modified ssRNA targeting PTEN]” came in with a T1/2 full length in series [2] (setting [8]) of 8.7 h. The EC50 with human PTEN (setting [9]) is 0.7 nM; in the series on human PTEN (setting [10]), 3 nM. Besides, the “T1/2” value in series [1] stood at 8.7 h.
With “ds miR-16: double-stranded miR-16 mimic: UAGCAGCACGUAAAUAUUGGCG (SEQ 21) with AAAGCGUCGUGCAUUUAUAACC (SEQ 22) (chain 2 CCAAUAUUUACGUGCUGCGAAA; listed as RNA, chemistry not given here) [reference compound]”, the cell cycle phenotype entry in the series on A549 cells was “blocked cells in the G1 phase of the cell cycle”.
Consider “^meCeTeGe^meCeTeAG^meC^meCT^meCTGGATeTeTeGeAe [ISIS 116847, reference compound]”, for which, in the series on PTEN [3], the “inhibition of PTEN” value was “potent inhibitor of PTEN” and the “% inhibition” value was found to be 76%.
Regarding “P-UmUfGmUfCmUfCmUfGmGfUmCfCmUfUmAfCmUfUmAeAe (antisense UUGUCUCUGGUCCUUACUUAA; sugars from the 5' end mfmfmfmfmfmfmfmfmfmee, 5' {P}, backbone not given here) [ISIS 418046, modified ssRNA targeting PTEN]”, the EC50 with human PTEN (setting [9]) was determined as 0.2 nM; in the series on human PTEN (setting [10]), 2 nM; with PTEN [4], 0.83 nM.
For “P-TScUfGmUfCmUfCmUfGmGfUmCfCmUfUmAfCmUfUmAeAe (antisense TUGUCUCUGGUCCUUACUUAA; 5'-phosphate, 2'-F/2'-OMe, MOE modifications, chemistry not fully specified) [ISIS 467074]”, in the series on PTEN [3], the “inhibition of PTEN” value was “lowest amount of PTEN reduction” and the “% inhibition” value was determined as 11%. Further, the “% Kd” value in the series on PTEN [5] is 52%. The half-maximal effective concentration (EC50) in the series on human PTEN (setting [9]) stood at 0.1 nM. In the series with human PTEN (setting [10]), the EC50 was found to be 2.5 nM. For the same substance, a half-maximal response with PTEN [4] (EC50) required 2.5 nM. In addition, in [6] (75 mg/kg, 48 h), the “compound lacking the 5′-phosphate in tissue” value is reported as “detected” and the “level of intact compound in tissue” value is on record as “not detected”. Also, the “Tissue Level of intact compound (μg/g)” value in series [6] (setting [11]) is reported as “none detected”.
For “P-TdUfGfUfCfUfCfUfGfGfUfCfCfUfUfAfCfUfUfAeAe (antisense {P}-[DMAEAc-T]fUfGfUfCfUfCfUfGfGfUfCfCfU*fU*fA*fC*fU*fU*eA*eA) [ISIS 422391, modified ssRNA targeting PTEN]”, the T1/2 full length in series [2] (four compounds tested separately, second table) was 3.7 h; in series [2] (setting [8]), 6.5 h. The figures for the concentration for a half-maximal effect (EC50) in the series on human PTEN (setting [9]) and in the series with human PTEN (setting [10]) were 0.5 nM and 5 nM, respectively. The “T1/2” value in series [1] amounted to 6.5 h.
For “P-TdUfGmUfCmUfCmUfGmGfUmCfCmUfUmAfCmUfUmAeAe (antisense TUGUCUCUGGUCCUUACUUAA; 5'-phosphate, chemical modifications, chemistry not fully specified) [ISIS 435397, modified ssRNA targeting PTEN]”, in the series on PTEN [5], the “% Kd” value turned out to be 44%. Besides, the concentration giving a half-maximal response (EC50) in the series on human PTEN (setting [9]) was 0.4 nM; in the series on human PTEN (setting [10]), 2 nM. Further, inhibition in the series with PTEN [7] was half-maximal at 2 nM (IC50).
With “Py-^meUmUfGmUfCmUfCmUfGmGfUmCfCmUfUmAfCmUfUmAeAe (antisense UUGUCUCUGGUCCUUACUUAA; 5'-methylenephosphonate, 2'-F/2'-OMe, MOE, chemistry not fully specified) [ISIS 467076]”, the “inhibition of PTEN” value with PTEN [3] is reported as “smaller inhibition of PTEN”. Further, in the series on PTEN [3], the “% inhibition” value amounted to 16%. In the series on PTEN [5], the “% Kd” value came out at 34%. The EC50 with human PTEN (setting [9]) was found to be 0.05 nM; with human PTEN (setting [10]), 6 nM; in the series on PTEN [4], 6 nM. In addition, the “level of intact compound in tissue” value in series [6] (75 mg/kg, 48 h) is reported as “present at a lower concentration”. Also, the “Tissue Level of intact compound” value in series [6] (setting [11]) was found to be 22.5 µg/g.

Source of the values: patent publication US20130156845A1, “LIPID FORMULATED SINGLE STRANDED RNA” (ALNYLAM PHARMACEUTICALS, INC., priority 2010, published 2013).
